Tests used:
Fv2-casp-3 [1] = molecular target: T1, Fv2-casp-3 (Homo sapiens, UniProt P62942, F37V); test: Western blot of processing and degradation of Fv2-casp-3 in Jurkat cells; assay type: cell-based
T1 construct: caspase-3 (same polypeptide); expressed in transfected cells; host or cells: Jurkat TAg
Procedure: Jurkat TAg cells were electroporated with 2 μg of plasmid, cultured 36 hours, and stimulated with drug for the indicated time period. Approximately 5×10^5 cells were lysed in 100 μl RIPA buffer (0.01M TrisHCl pH 8.0, 140 mM NaCl, 1% Triton X-100, 1 mM phenylmethylsulfonyl fluoride, 1% sodium deoxycholate, 0.1% SDS) on ice for 30 minutes. Cell debris were pelleted and supernatants were boiled in 1:1 Laemmli sample buffer (with 5% β-ME) for 5 minutes. […] Membranes were incubated with monoclonal anti-HA epitope antibody, HA.11 (BABCO) followed by polyclonal HRP-conjugated goat anti-mouse antibody (Bio-Rad). Bands were detected with SuperSignal-Chemiluminescent Substrate (Pierce).
Processing of caspase-3, and other caspases, ordinarily involves two or more cleavages after aspartic acid residues. To confirm that the CID-mediated diminution of reporter activity was caused by activation of the conditional caspases, the processing and degradation of conditional caspase-3 was directly examined. Jurkat cells were transfected 2 μg Fv2-casp-3 or Fv2-casp-3/S163. […] Following these incubations, cell extracts were analyzed by western blotting using monoclonal antibodies to an epitope tag (HA) placed at both ends of the construct.
The breakdown products of caspase-3 activation were not seen even though epitope tags were present at both ends of the protein. […] Therefore, homomultimerization of the caspases, caspase-1 and caspase-3, is sufficient for their activation.

JD-2a cells = test: Fluorescent microscopy of JD-2a cells infected with Adv-Fv1-YAMA; assay type: cell-based, human; details: Adv-Fv1-YAMA MOI ~25, 50 nM AP1903 for 24 hours
Procedure: Replication deficient (ΔE1) adenoviral vectors expressing green flourescent protein and conditional Caspase 1 (ICE) or Caspase 3 (YAMA) were engineered. These vectors independently express green fluorescent protein so that infected cells are easily identified by their green color under fluorescent microscopy.
40,000 JD-2a cells per well were plated in 24-well plates and infected at a multiplicity-of-infection (MOI) of ˜25 with Adv-Fv1-YAMA, an adenoviral vector expressing CID-regulated YAMA. […] All of the cells incubated with virus and maintained in control media appeared green, and were clearly attached and viable, similar to non-fluorescent non-infected JD-2a cells (FIG. 47b).

Fv2-casp-3/S163 = molecular target: T2, Fv2-casp-3/S163 (Homo sapiens, UniProt P42574+P62942, C163S/F37V); test: SEAP reporter assay, Jurkat TAg cells transfected with inactive Fv2-casp-3/S163; assay type: cell-based; details: 100 nM AP1903, enzymatically inactive caspase-3
T2 construct: caspase-3 C163S (same polypeptide); expressed in transfected cells; host or cells: Jurkat TAg
Procedure: Jurkat TAg cells (10^7) in log phase growth were electroporated (950 μF, 250V; Gene Pulser II) with expression plasmid and 1-2 μg SRα-SEAP. After 24 hours, transformed cells were stimulated with CID or anti-Fas antibody (CH.11, Kamiya Biomedical). After an additional 20 hours, supernatants were assayed for SEAP activity as described previously (15). Units of SEAP activity are reported directly and as a percentage of activity relative to no stimulation within the same transfections (% Relative Activity).
In contrast to caspase-1 and Fas, conditional caspase-3 alleles are not apparently autotoxic (FIGS. 7-9). With reference to FIGS. 7 and 8, Jurkat TAg cells were transiently-transfected with: 2 μg Fv2-casp-3 (open squares), or 2 μg Fv2-casp-3/S163 (closed squares). With reference to FIG. 9, Jurkat TAg cells were transfected with: 2 μg Fpk3-casp-3/S163 (closed triangles), 2 μg Fpk3-casp-3 (open squares), or 2 μg Fpk3-Δ20casp-3 (closed squares). After 20 hours, transfected cells were treated and analyzed as before. Data is representative of at least three independent experiments performed in duplicate.

conditional YAMA = molecular target: T3, conditional YAMA (Homo sapiens, UniProt P62942, F37V); test: Luciferase survival assay, BPH-derived smooth muscle cells (JD, CR-2a) transfected with conditional YAMA; assay type: cell-based
T3 construct: caspase-3 / YAMA (same polypeptide); expressed in transfected cells; host or cells: JD and CR-2a (smooth muscle cell lines from BPH patients)
From the text: (§1) Conditional Fas, YAMA and a YAMA construct containing a single, inactivating point mutation were cotransfected with a luciferase reporter plasmid (pGL2) into JD and CR-2a cell lines. These are smooth muscle cell lines derived from prostate tissue samples taken from patients with BPH. […] Cells were then lysed and assayed for luciferase activity as a marker of cell survival.
(§2) It is worth noting that a conditional Fas-based treatment for BPH is not possible since the Fas construct was not effective in causing apoptosis in BPH derived cell lines. It is quite likely that Fas-based methods will be ineffective in many other cell types, thus severely limiting the utility of this approach.

Fv2-casp-3 [2] = molecular target: T1, Fv2-casp-3; test: SEAP reporter assay, Jurkat TAg cells transfected with Fv2-casp-3; assay type: cell-based; details: 2 μg Fv2-casp-3, Jurkat TAg, in the presence of AP1903
conditional Fas = molecular target: T4, conditional Fas (Homo sapiens, UniProt P62942, F37V); test: Luciferase survival assay, BPH-derived smooth muscle cells transfected with conditional Fas; assay type: cell-based; details: with or without AP1903, 24 hours
T4 construct: Fas cytoplasmic portion (same polypeptide); expressed in transfected cells; host or cells: JD and CR-2a (smooth muscle cell lines from BPH patients)
From the text: as §1, §2

inactivated YAMA = molecular target: T5, inactivated YAMA (Homo sapiens, UniProt P42574+P62942, C163S/F37V); test: Luciferase survival assay, BPH-derived smooth muscle cells transfected with inactivated YAMA; assay type: cell-based; details: with or without AP1903, 24 hours
T5 construct: caspase-3 C163S (same polypeptide); expressed in transfected cells; host or cells: JD and CR-2a (smooth muscle cell lines from BPH patients)
From the text: as §1, §2

RM-1 cells = details: single treatment with adenovirus expressing HSV-tk and ganciclovir; cited from earlier work
[3] = system: tumor cell types expressing herpes virus tk; details: cited from earlier work
S-Fv3-Casp3 = molecular target: T6, S-Fv3-Casp3 (Homo sapiens, UniProt P62942, F37V); test: SEAP reporter assay, Jurkat TAg cells, S-Fv3-Casp3; assay type: cell-based; details: construct containing three Fvs; read-out: IC50 (decrease in SEAP activity)
T6 construct: caspase-3 (same polypeptide); expressed in transfected cells; host or cells: Jurkat TAg
Procedure: (§3) Jurkat TAg cells (10^7) in log phase growth were electroporated (950 μF, 250 V) with expression plasmid and 2 μg SRα-SEAP. […] Units of SEAP activity are reported directly and as a percentage of activity relative to no stimulation (“% Relative SEAP activity”). All experiments were repeated at least three times and representative experiments performed with duplicate samples are shown.

S-Fv2-Casp1 = molecular target: T7, S-Fv2-Casp1 (Homo sapiens, UniProt P62942, F37V); test: SEAP reporter assay, Jurkat TAg cells, S-Fv2-Casp1; assay type: cell-based; details: caspase-1 fused to two Fvs, no linker
T7 construct: caspase-1 (same polypeptide); expressed in transfected cells; host or cells: Jurkat TAg
Procedure: as §3

FKBP12V36 (Fv) = FKBP12V36 (Fv) (Homo sapiens, UniProt P62942, F37V); test: CID binding to mutant FKBP12 (F36V, Fv); details: relative to AP1903
Chain of FKBP12V36 (Fv) (P62942 whole entry F37V): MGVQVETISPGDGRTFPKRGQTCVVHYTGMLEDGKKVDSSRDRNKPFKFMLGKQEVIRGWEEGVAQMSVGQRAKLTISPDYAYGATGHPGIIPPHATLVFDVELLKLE

T1 sequence (P62942 2-108 F37V): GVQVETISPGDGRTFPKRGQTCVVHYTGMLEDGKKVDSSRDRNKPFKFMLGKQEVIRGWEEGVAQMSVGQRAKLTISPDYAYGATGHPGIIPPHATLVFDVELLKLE
T3 sequence (P62942 2-108 F37V): as above
T3 sequence (P42574 2-277 partner limits assumed): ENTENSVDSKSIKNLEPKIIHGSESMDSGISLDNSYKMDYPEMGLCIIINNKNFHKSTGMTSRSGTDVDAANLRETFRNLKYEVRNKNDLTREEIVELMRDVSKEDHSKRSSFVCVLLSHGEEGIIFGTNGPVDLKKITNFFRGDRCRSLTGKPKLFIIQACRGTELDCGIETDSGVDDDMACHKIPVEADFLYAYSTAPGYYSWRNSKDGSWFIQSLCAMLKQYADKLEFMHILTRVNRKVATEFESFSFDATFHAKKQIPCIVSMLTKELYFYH
T4 sequence (P62942 2-108 F37V): as the sequence (P62942 2-108 F37V) above
T4 sequence (P25445 191-335 partner limits assumed): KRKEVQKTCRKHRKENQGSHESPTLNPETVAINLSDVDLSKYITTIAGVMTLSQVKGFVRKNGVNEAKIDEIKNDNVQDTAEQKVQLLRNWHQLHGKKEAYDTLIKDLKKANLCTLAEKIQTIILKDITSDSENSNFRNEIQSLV
T6 sequence (P62942 2-108 F37V): as the sequence (P62942 2-108 F37V) above
T6 sequence (P42574 2-277 partner limits assumed): as the sequence (P42574 2-277 partner limits assumed) above
T7 sequence (P62942 2-108 F37V): as the sequence (P62942 2-108 F37V) above
T7 sequence (P29466 2-404 partner limits assumed): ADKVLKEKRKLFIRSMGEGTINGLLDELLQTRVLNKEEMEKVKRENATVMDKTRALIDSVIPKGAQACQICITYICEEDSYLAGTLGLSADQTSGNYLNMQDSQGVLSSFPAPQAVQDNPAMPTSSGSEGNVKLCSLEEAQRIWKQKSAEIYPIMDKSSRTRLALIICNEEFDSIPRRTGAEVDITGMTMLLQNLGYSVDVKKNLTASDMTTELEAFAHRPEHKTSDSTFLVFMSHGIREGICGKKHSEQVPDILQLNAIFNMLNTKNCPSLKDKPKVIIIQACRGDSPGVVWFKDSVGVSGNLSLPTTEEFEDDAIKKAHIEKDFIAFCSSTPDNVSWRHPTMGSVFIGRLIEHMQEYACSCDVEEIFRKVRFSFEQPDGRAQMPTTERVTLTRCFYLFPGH

Which “time to full degradation of Fv2-casp-3” value (Fv2-casp-3 [1]; 100 nM AP1903) does the source give for `CC[C@H](C(=O)N1CCCC[C@H]1C(=O)O[C@H](CCc1ccc(OC)c(OC)c1)c1cccc(OCC(=O)NCCNC(=O)COc2cccc([C@@H](CCc3ccc(OC)c(OC)c3)OC(=O)[C@@H]3CCCCN3C(=O)[C@@H](CC)c3cc(OC)c(OC)c(OC)c3)c2)c1)c1cc(OC)c(OC)c(OC)c1` [AP1903] here?
Its value is “four”.

And the “time to complete degradation of full-length caspase-3” value (Fv2-casp-3 [1]; 500 nM AP1903)?
The value was ≤ 2 h.

What about the “concentration sufficient to cause the processing and degradation of the majority of Fv2-casp-3” value (Fv2-casp-3 [1]; treated for eight hours, half-log dilutions) of the same molecule?
The value was 10 nM.

And the “cells either dead or in the process of undergoing apoptosis” value (JD-2a cells)?
Its value is > 99%.

What about the “reduction of reporter activity” value (Fv2-casp-3/S163) of the same molecule?
The value was “could not reduce reporter activity”.

What about the “reduction in reporter activity” value (conditional YAMA; 100 μM AP1903 for 24 hours) of the same molecule?
Its value is 82%.

And the luciferase activity (conditional YAMA; treated with 100 μM AP1903 for 24 hours, 668±67 without AP1903)?
The luciferase activity was 119±13.

And the “reduction in reporter activity” value (Fv2-casp-3 [2])?
Its value is “≈ 65%”.

And the “reduction in the percentage of surviving cells” value (conditional Fas)?
Its value is “no significant reduction”.

And the “reduction in the percentage of surviving cells” value (inactivated YAMA)?
Its value is “no significant reduction”.

What does the source list for `Nc1nc(O)c2ncn(COC(CO)CO)c2n1` [ganciclovir]?
reduction in lung colonization (RM-1 cells): 40%; dose up to which the cell line was essentially immune ([3]; ESB cell line): up to 1 μg/mL; time necessary to effect a substantial amount of cell death ([3]; high doses of ganciclovir): 6 to 22 days

With FK1012 as the molecule, how does the IC50 (S-Fv3-Casp3) read?
Its IC50 is ~20 nM.

What about the IC50 (S-Fv2-Casp1) of the same molecule?
The IC50 was 1 nM.

And the “lower affinity of FK1012 for Fv versus AP1903” value (FKBP12V36 (Fv))?
The value was “ten-fold”.

Reference: patent publication US20040040047A1 (priority 1998, published 2004)
